Measured values published in patent US10639299B2, “Calcium sensing receptors, ligands, compositions, and methods of use” (Georgia State University Research Foundation, Inc., priority 2016, dated 2020).

Target: T1, CaSR (Homo sapiens, UniProt P41180)
T1 sequence (P41180 20-1078): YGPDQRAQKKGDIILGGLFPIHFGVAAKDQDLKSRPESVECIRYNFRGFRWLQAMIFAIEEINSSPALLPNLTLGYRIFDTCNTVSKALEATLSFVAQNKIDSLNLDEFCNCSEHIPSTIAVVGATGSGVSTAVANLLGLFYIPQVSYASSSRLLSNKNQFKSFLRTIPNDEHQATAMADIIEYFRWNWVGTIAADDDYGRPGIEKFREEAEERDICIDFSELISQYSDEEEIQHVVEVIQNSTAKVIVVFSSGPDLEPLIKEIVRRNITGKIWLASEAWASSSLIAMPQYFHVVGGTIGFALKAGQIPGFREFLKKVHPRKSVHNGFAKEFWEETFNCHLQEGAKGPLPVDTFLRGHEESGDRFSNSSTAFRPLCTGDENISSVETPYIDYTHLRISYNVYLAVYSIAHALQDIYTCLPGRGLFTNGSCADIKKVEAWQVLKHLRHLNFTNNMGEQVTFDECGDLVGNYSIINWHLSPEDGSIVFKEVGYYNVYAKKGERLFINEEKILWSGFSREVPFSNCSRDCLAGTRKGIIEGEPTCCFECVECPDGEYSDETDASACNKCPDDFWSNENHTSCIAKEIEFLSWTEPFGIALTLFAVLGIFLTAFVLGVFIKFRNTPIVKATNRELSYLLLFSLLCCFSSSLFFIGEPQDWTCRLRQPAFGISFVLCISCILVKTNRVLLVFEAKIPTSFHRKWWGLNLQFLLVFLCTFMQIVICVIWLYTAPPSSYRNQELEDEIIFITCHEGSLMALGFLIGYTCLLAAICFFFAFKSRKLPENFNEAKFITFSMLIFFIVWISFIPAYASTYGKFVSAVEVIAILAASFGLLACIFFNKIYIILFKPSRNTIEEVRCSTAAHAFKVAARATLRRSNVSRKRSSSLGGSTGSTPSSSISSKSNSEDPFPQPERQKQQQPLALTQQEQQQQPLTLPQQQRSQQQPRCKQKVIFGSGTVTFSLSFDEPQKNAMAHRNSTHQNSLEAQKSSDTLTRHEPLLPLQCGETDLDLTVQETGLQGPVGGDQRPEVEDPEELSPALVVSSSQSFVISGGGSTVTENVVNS
Assay: [Ca^2+]i signaling (Fura-2) evoked by [Mg^2+]o/[Ca^2+]o in CaSR-expressing HEK293 cells (5001 cell population assay)
Assay type: cell-based
Set-up: expressed in transfected cells
Procedure: Measurement of intracellular free Ca^2+ was assessed as described by Huang, et al^33. Briefly, wild type CaSR, or its mutants, were transiently transfected into HEK293 cells grown on coverslips and cultured for 48 h. The cells were subsequently loaded for 15 min using 2 μM Fura-2 AM in 2 mL physiological saline buffer (10 mM HEPES, 140 mM NaCl, 5 mM KCl, 1.0 mM MgCl2 and pH 7.4). The coverslips were mounted in a bath chamber on the stage of a Leica DM6000 fluorescence microscope. The cells were alternately illuminated with 340 or 380 nm light, and the fluorescence at an emission wavelength 510 nm was recorded in real time as the [Ca^2+]o and/or [Mg^2+]o was increased in a stepwise manner in the presence or absence of 0.25 mM TNCA in buffer (10 mM HEPES, 155 mM NaCl, 5 mM KCl, 2 mM NaH2PO4, 0.5 mM MgCl2 and pH 7.4). The ratio of the emitted fluorescence intensities resulting from excitation at both wavelengths was utilized as a surrogate for changes in [Ca^2+]i and was further plotted and analyzed as a function of [Ca^2+]o. All experiments were performed at room temperature. The signals from 20 to 100 single cells were recorded for each measurement. Oscillations were identified as three successive fluctuations in [Ca^2+]i after the initial peak. Determination of the Effect of TNCA on Mg^2+-Evoked [Ca^2+]i Signaling by Stimulation of CaSR in Cell Populations.
Changes in the intracellular Ca^2+ concentration [Ca^2+ ]i elicited by extracellular Mg^2+ ([Mg^2+]o) in a population of cells were measured by fluorimetry as described previously^33. A cell line stably expressing CaSR (designated the “5001 cell line”) was seeded on 13.5×20-mm coverslips and cultured in DMEM. After reaching 95% confluence, cells were washed three times using loading buffer (20 mM HEPES [pH 7.4], 125 mM NaCl, 5 mM KCl, 1.25 mM CaCl2, 1 mM MgCl2, 1 mM NaH2PO4, 1% glucose, and 1% BSA) and subsequently incubated with 4 μM Fura-2 and 4 μM pluronic F127 for 20 minutes at 37° C. to enable sufficient dye loading in the same buffer. After removing the excess Fura-2, coverslips with cells were diagonally positioned in a quartz cuvette filled with 3 ml of experimental buffer (125 mM NaCl, 5 mM KCl, 0.5 mM CaCl2, 0.5 mM MgCl2, 1% glucose, and 1% BSA). Measurements of Fura-2 fluorescence at 510 nm when excited at 340 or 380 nm were performed on a QM1 fluorescence spectrophotometer (PTI). The emission ratio of 340/380 was calculated and used to reflect the changes in [Ca^2+]i when different concentrations of [Mg^2+]o were applied to the cells.
To examine the co-activation of CaSR by TNCA and [Mg^2+]o or [Ca^2+]o, different concentrations of TNCA were placed in the experimental buffer with a fixed concentration of [Ca^2+]o and varying concentrations of [Mg^2+]o, or vice versa, as described in the results section. The effects of other ligands were analyzed by comparing the changes in [Ca^2+ ]i produced by [Mg^2+]o alone or by co-application of Mg^2+ with other ligands. The EC50 of [Mg^2+]o obtained during incubation with various concentrations of TNCA is compared with that observed in the presence of [Mg^2+]o alone. The EC50 changes were plotted as a function of TNCA concentration and the curve was fit to the Hill equation. The activation of CaSR by the TNCA, functioning as a co-agonist with [Mg^2+]o, is indicated by the increasingly leftward-shifted EC50 for [Mg^2+]o as the concentration of TNCA increases (FIG. 6).

N[C@@H](Cc1ccccc1)C(=O)O [Phe, phenylalanine]
effect on [Mg^2+]o activation of CaSR: further potentiated
